Measurements from PubChem BioAssay AID1745844 (Carcinogenic Potency Database (CPDB), 2022).
Calls of active or inactive are those of the source. How the calls were made is not given here.

System: rodent lifetime carcinogenesis bioassay, tumor incidence TD50
Test: chronic cancer bioassays in animals – CPDB, compiled studies (AID 1745844)

## CBr
mouse, strain B6C3F1, females, inhaled, site: any site (literature study), lesion: several types, types named in the paper, dosed 75 weeks, study length 104 weeks
  carcinogen call: negative (inactive)
mouse, strain B6C3F1, males, inhaled, site: any site (literature study), lesion: several types, types named in the paper, dosed 75 weeks, study length 104 weeks
  carcinogen call: negative (inactive)
mouse, strain Crj:BDF1, females, inhaled, site: liver, lesion: hepatocellular adenoma, dosed 104 weeks, study length 105 weeks
  carcinogen call: negative (inactive)
mouse, strain Crj:BDF1, females, inhaled, site: liver, lesion: hepatocellular carcinoma, dosed 104 weeks, study length 105 weeks
  TD50: 23900 mg/kg/day (inactive)
mouse, strain Crj:BDF1, females, inhaled, site: lung, lesion: alveolar/bronchiolar adenoma, dosed 104 weeks, study length 105 weeks
  TD50: 6420 mg/kg/day (inactive)
mouse, strain Crj:BDF1, females, inhaled, site: lung, lesion: alveolar/bronchiolar carcinoma, dosed 104 weeks, study length 105 weeks
  carcinogen call: negative (inactive)
mouse, strain Crj:BDF1, females, inhaled, site: lymph node, lesion: malignant lymphoma, dosed 104 weeks, study length 105 weeks
  TD50: 845 mg/kg/day (inactive)
mouse, strain Crj:BDF1, males, inhaled, site: liver, lesion: hepatocellular adenoma, dosed 104 weeks, study length 105 weeks
  carcinogen call: negative (inactive)
mouse, strain Crj:BDF1, males, inhaled, site: liver, lesion: hepatocellular carcinoma, dosed 104 weeks, study length 105 weeks
  carcinogen call: negative (inactive)
mouse, strain Crj:BDF1, males, inhaled, site: lung, lesion: alveolar/bronchiolar adenoma, dosed 104 weeks, study length 105 weeks
  carcinogen call: negative (inactive)
mouse, strain Crj:BDF1, males, inhaled, site: lung, lesion: alveolar/bronchiolar carcinoma, dosed 104 weeks, study length 105 weeks
  carcinogen call: negative (inactive)
rat, strain F344/DuCrj, females, inhaled, site: adrenal gland, lesion: pheochromocytoma, dosed 104 weeks, study length 105 weeks
  TD50: 805 mg/kg/day (inactive)
rat, strain F344/DuCrj, females, inhaled, site: liver, lesion: hepatocellular adenoma, dosed 104 weeks, study length 105 weeks
  carcinogen call: negative (inactive)
rat, strain F344/DuCrj, females, inhaled, site: liver, lesion: hepatocellular carcinoma, dosed 104 weeks, study length 105 weeks
  carcinogen call: negative (inactive)
rat, strain F344/DuCrj, males, inhaled, site: liver, lesion: hepatocellular adenoma, dosed 104 weeks, study length 105 weeks
  carcinogen call: negative (inactive)
rat, strain F344/DuCrj, males, inhaled, site: liver, lesion: hepatocellular carcinoma, dosed 104 weeks, study length 105 weeks
  carcinogen call: negative (inactive)
rat, strain F344/DuCrj, males, inhaled, site: peritoneum, lesion: mesothelioma, malignant, dosed 104 weeks, study length 105 weeks
  TD50: 40.8 mg/kg/day (inactive)
rat, strain F344/DuCrj, males, inhaled, site: pituitary gland, lesion: adenoma, dosed 104 weeks, study length 105 weeks
  TD50: 31.8 mg/kg/day (inactive)
rat, strain Wistar-random, females, inhaled, site: any site (literature study), lesion: malignant tumor, dosed 129 weeks, study length 129 weeks
  carcinogen call: negative (inactive)
rat, strain Wistar-random, females, inhaled, site: any site (literature study), lesion: one or several types, types not named, dosed 129 weeks, study length 129 weeks
  carcinogen call: negative (inactive)
rat, strain Wistar-random, females, inhaled, site: liver, lesion: cholangiocarcinoma, dosed 129 weeks, study length 129 weeks
  carcinogen call: negative (inactive)
rat, strain Wistar-random, females, inhaled, site: liver, lesion: neoplastic nodule, dosed 129 weeks, study length 129 weeks
  TD50: 2240 mg/kg/day (inactive)
rat, strain Wistar-random, females, inhaled, site: nasal cavity, olfactory epithelium, lesion: one or several types, types not named, dosed 129 weeks, study length 129 weeks
  carcinogen call: negative (inactive)
rat, strain Wistar-random, females, inhaled, site: nasal cavity, respiratory epithelium, lesion: one or several types, types not named, dosed 129 weeks, study length 129 weeks
  carcinogen call: negative (inactive)
rat, strain Wistar-random, males, inhaled, site: any site (literature study), lesion: malignant tumor, dosed 128 weeks, study length 128 weeks
  carcinogen call: negative (inactive)
rat, strain Wistar-random, males, inhaled, site: any site (literature study), lesion: one or several types, types not named, dosed 128 weeks, study length 128 weeks
  carcinogen call: negative (inactive)
rat, strain Wistar-random, males, inhaled, site: liver, lesion: cholangiocarcinoma, dosed 128 weeks, study length 128 weeks
  carcinogen call: negative (inactive)
rat, strain Wistar-random, males, inhaled, site: liver, lesion: hepatocellular carcinoma, dosed 128 weeks, study length 128 weeks
  carcinogen call: negative (inactive)
rat, strain Wistar-random, males, inhaled, site: liver, lesion: neoplastic nodule, dosed 128 weeks, study length 128 weeks
  carcinogen call: negative (inactive)
rat, strain Wistar-random, males, inhaled, site: nasal cavity, olfactory epithelium, lesion: one or several types, types not named, dosed 128 weeks, study length 128 weeks
  carcinogen call: negative (inactive)
rat, strain Wistar-random, males, inhaled, site: nasal cavity, respiratory epithelium, lesion: fibrosarcoma, dosed 128 weeks, study length 128 weeks
  carcinogen call: negative (inactive)
rat, strain Wistar-random, males, inhaled, site: nasal cavity, respiratory epithelium, lesion: osteosarcoma, dosed 128 weeks, study length 128 weeks
  carcinogen call: negative (inactive)
rat, strain Wistar-random, males, inhaled, site: nasal cavity, respiratory epithelium, lesion: squamous-cell carcinoma, dosed 128 weeks, study length 128 weeks
  carcinogen call: negative (inactive)
rat, strain Wistar-random, males, inhaled, site: pituitary gland, lesion: hemorrhagic tumor, dosed 128 weeks, study length 128 weeks
  carcinogen call: negative (inactive)

## Clc1cc(Cl)cc(-c2cc(Cl)cc(Cl)c2)c1
rat, strain Donryu, females, in feed, site: liver, lesion: one or several types, types not named, dosed 26 weeks, study length 84 weeks
  carcinogen call: negative (inactive)

## Cc1ccc(N=Nc2c(O)c(S(=O)(=O)O)cc3cc(S(=O)(=O)O)ccc23)c(C)c1
mouse, strain DDY, females, in feed, site: liver, lesion: hepatocellular adenoma, dosed 81 weeks, study length 81 weeks
  TD50: 21500 mg/kg/day
mouse, strain DDY, females, in feed, site: liver, lesion: hepatocellular carcinoma, dosed 81 weeks, study length 81 weeks
  TD50: 784 mg/kg/day
mouse, strain DDY, males, in feed, site: liver, lesion: hepatocellular adenoma, dosed 81 weeks, study length 81 weeks
  TD50: 8790 mg/kg/day
mouse, strain DDY, males, in feed, site: liver, lesion: hepatocellular carcinoma, dosed 81 weeks, study length 81 weeks
  TD50: 659 mg/kg/day
rat, strain CFE, females, in feed, site: liver, lesion: nodular hyperplasia, dosed 104 weeks, study length 104 weeks
  TD50: 704 mg/kg/day
rat, strain CFE, males, in feed, site: liver, lesion: nodular hyperplasia, dosed 104 weeks, study length 104 weeks
  TD50: 2910 mg/kg/day
rat, strain Wistar albino, females, in feed, site: liver, lesion: hepatocellular carcinoma, dosed 52 weeks, study length 91 weeks
  TD50: 2620 mg/kg/day
rat, strain Wistar albino, females, in feed, site: liver, lesion: hepatocellular carcinoma, dosed 91 weeks, study length 91 weeks
  TD50: 3270 mg/kg/day
rat, strain Wistar albino, females, in feed, site: liver, lesion: several types, types named in the paper, dosed 52 weeks, study length 91 weeks
  TD50: 233 mg/kg/day
rat, strain Wistar albino, females, in feed, site: liver, lesion: several types, types named in the paper, dosed 91 weeks, study length 91 weeks
  carcinogen call: positive
rat, strain Wistar, males, in feed, site: liver, lesion: liver-cell adenoma, dosed 65 weeks, study length 65 weeks
  TD50: 1130 mg/kg/day

## O=[N+]([O-])c1ccc(-c2nc(NCCO)c3ccccc3n2)s1
rat, strain Sprague-Dawley, females, in feed, site: any site (literature study), lesion: several types, types named in the paper, dosed 46 weeks, study length 66 weeks
  TD50: 1.87 mg/kg/day
rat, strain Sprague-Dawley, females, in feed, site: intestine, lesion: leiomyosarcoma, dosed 46 weeks, study length 66 weeks
  TD50: 3.84 mg/kg/day
rat, strain Sprague-Dawley, females, in feed, site: liver, lesion: bile duct adenoma, dosed 46 weeks, study length 66 weeks
  TD50: 132 mg/kg/day

## CC(CCl)OC(C)CCl (stereo unspecified)
mouse, strain B6C3F1, females, by gavage, site: any site (literature study), lesion: several types, types named in the paper, dosed 103 weeks, study length 106 weeks
  TD50: 231 mg/kg/day
mouse, strain B6C3F1, females, by gavage, site: lung, lesion: alveolar/bronchiolar adenoma + alveolar/bronchiolar carcinoma, dosed 103 weeks, study length 106 weeks
  TD50: 311 mg/kg/day
mouse, strain B6C3F1, females, by gavage, site: lung, lesion: alveolar/bronchiolar adenoma, dosed 103 weeks, study length 106 weeks
  TD50: 381 mg/kg/day
mouse, strain B6C3F1, females, by gavage, site: stomach, lesion: squamous-cell carcinoma + squamous-cell papilloma, dosed 103 weeks, study length 106 weeks
  TD50: 1650 mg/kg/day
mouse, strain B6C3F1, males, by gavage, site: any site (literature study), lesion: several types, types named in the paper, dosed 103 weeks, study length 105 weeks
  TD50: 116 mg/kg/day
mouse, strain B6C3F1, males, by gavage, site: liver, lesion: hepatocellular adenoma + hepatocellular carcinoma + neoplastic nodule, dosed 103 weeks, study length 105 weeks
  TD50: 138 mg/kg/day
mouse, strain B6C3F1, males, by gavage, site: liver, lesion: hepatocellular adenoma + hepatocellular carcinoma, dosed 103 weeks, study length 105 weeks
  TD50: 138 mg/kg/day
mouse, strain B6C3F1, males, by gavage, site: liver, lesion: hepatocellular carcinoma, dosed 103 weeks, study length 105 weeks
  TD50: 229 mg/kg/day
mouse, strain B6C3F1, males, by gavage, site: lung, lesion: alveolar/bronchiolar adenoma + alveolar/bronchiolar carcinoma, dosed 103 weeks, study length 105 weeks
  TD50: 259 mg/kg/day
mouse, strain B6C3F1, males, by gavage, site: lung, lesion: alveolar/bronchiolar adenoma, dosed 103 weeks, study length 105 weeks
  TD50: 306 mg/kg/day
rat, strain Fischer 344, females, by gavage, site: any site (literature study), lesion: several types, types named in the paper, dosed 103 weeks, study length 105 weeks
  TD50: 65.6 mg/kg/day (inactive)
rat, strain Fischer 344, males, by gavage, site: any site (literature study), lesion: several types, types named in the paper, dosed 103 weeks, study length 104 weeks
  TD50: 101 mg/kg/day (inactive)
